These are literature values, as cited in patent publication US20170306503A1, “SYNTHETIC ACID COMPOSITIONS ALTERNATIVES TO CONVENTIONAL ACIDS IN THE OIL AND GAS INDUSTRY” (FLUID ENERGY GROUP LTD, priority 2014, published 2017).

For the data set the following is noted: gas exposure, death in 2-3 minutes.

With `Cl` [Hydrogen chloride gas, Hydrogen chloride], the “level at which death can occur” value is on record as 1300-2000 PPM.
